The numbers were not newly measured in US20180185509A1, “AMATOXIN-CONJUGATES WITH IMPROVED LINKAGES” (Heidelberg Pharma GmbH, priority 2011, published 2018), which cites them from elsewhere.

The target in the data set is RNA-polymerase II (Homo sapiens, UniProt P24928). Conditions: read-out: KD of the complex between amanitin and RNA-polymerase II.

What is called Kd is the constant that tells how readily two partners part at equilibrium. In the case of amanitin, the dissociation constant Kd was 3 nM.
